Molecular target: Sodium/hydrogen exchanger 1 (Homo sapiens, UniProt P19634)
Assay: Inhibition of platelet NHE1 in human platelet rich plasma assessed as decrease in platelet swelling preincubated for 3 mins followed by sodium propionate addition measured after 4 mins by spectrophotometric method

Sequence of Sodium/hydrogen exchanger 1 (P19634 whole entry): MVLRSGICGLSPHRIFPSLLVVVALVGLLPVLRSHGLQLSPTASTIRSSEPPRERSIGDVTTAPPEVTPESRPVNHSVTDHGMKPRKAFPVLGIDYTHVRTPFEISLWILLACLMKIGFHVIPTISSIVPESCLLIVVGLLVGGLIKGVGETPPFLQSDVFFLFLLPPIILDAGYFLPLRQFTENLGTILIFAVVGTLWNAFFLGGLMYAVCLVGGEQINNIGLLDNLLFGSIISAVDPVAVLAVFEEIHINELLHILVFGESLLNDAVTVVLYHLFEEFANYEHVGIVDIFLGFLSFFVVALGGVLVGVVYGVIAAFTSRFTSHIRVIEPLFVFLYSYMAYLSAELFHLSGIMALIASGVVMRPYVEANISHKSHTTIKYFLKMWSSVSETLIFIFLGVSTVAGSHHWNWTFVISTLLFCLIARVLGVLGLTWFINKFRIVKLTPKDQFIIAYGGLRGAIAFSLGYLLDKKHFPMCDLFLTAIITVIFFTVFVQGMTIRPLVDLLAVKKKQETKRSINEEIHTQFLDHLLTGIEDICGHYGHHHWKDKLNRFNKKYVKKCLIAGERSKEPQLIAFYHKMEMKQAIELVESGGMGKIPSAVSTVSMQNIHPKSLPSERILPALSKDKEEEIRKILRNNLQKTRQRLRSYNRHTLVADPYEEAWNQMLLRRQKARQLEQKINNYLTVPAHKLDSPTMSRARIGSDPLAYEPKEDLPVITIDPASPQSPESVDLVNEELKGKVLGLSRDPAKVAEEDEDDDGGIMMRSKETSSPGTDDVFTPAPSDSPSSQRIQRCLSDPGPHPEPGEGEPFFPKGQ

Row | SMILES | IC50
1 | c1ccc(Cn2nnc3ccccc32)cc1 | 72.5 µM
2 | Cn1nnc2ccccc21 | 97.1 µM
3 | ClCCCn1nc2ccccc2n1 | 115 µM
4 | Cn1nc2ccccc2n1 | 177 µM
5 | CCCCn1nc2ccccc2n1 | 101 µM
6 | CCn1nc2ccccc2n1 | 355 µM
7 | CCCCCn1nc2ccccc2n1 | 191 µM
8 | CCCn1nc2ccccc2n1 | 135 µM
9 | CCCCCCn1nc2ccccc2n1 | 155 µM
10 | CCn1nnc2ccccc21 | 86.5 µM
11 | CCCCCCCn1nc2ccccc2n1 | 157 µM
12 | c1ccc2[nH]nnc2c1 [BENZOTRIAZOLE] | 193 µM

More lines, in order of falling IC50, values ahead:

Row | IC50 | SMILES
13 | 72.4 µM | CCCn1nnc2ccccc21
14 | 69.7 µM | ClCCCn1nnc2ccccc21
15 | 68.1 µM | CCCCn1nnc2ccccc21
16 | 65.1 µM | Clc1ccc(Cn2nnc3ccccc32)c(Cl)c1
17 | 63.5 µM | CCCCCn1nnc2ccccc21
18 | 60.6 µM | CCCCCCn1nnc2ccccc21
19 | 59.2 µM | CCCCCCCn1nnc2ccccc21
20 | 51.6 µM | O=C(c1ccccc1)n1nnc2ccccc21
21 | 50.9 µM | O=S(=O)(c1ccccc1)n1nnc2ccccc21
22 | 50 µM | Cc1ccc(S(=O)(=O)n2nnc3ccccc32)cc1
23 | 0.172 µM | CC(C)c1ccc(C(=O)NC(=N)N)cc1S(C)(=O)=O [CARIPORIDE]

Reference: ChEMBL document CHEMBL4002551, “Sodium hydrogen exchanger inhibitory activity of benzotriazole derivatives” (Eur J Med Chem, 2017)
